Data from ChEMBL document CHEMBL1201862, “PubChem BioAssay data set” (2004).
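These data come from cells grown in 96-well plates and exposed to compound for 48 hours at five concentrations. Abbreviation: GI50, concentration required for 50% inhibition of growth.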 The source made the active and inactive calls. No stated cut-off is given here; in the data, active = GI50 up to about 1.1 µM and inactive = higher.

Assays:
Experiment in all cases: DTP human tumour cell line panel, 48 h
786-0 = system: 786-0
A498 = system: A498
A549 = system: A549
ACHN = system: ACHN
CAKI-1 = system: CAKI-1
CCRF-CEM = system: CCRF-CEM
COLO 205 = system: COLO 205
DLD-1 = system: DLD-1
DMS-114 = system: DMS-114
DMS-273 = system: DMS-273
EKVX = system: EKVX
HCC 2998 = system: HCC 2998
HCT-116 = system: HCT-116
HCT-15 = system: HCT-15
HL-60 = system: HL-60
HOP-62 = system: HOP-62
HOP-92 = system: HOP-92
IGROV-1 = system: IGROV-1
K562 = system: K562
KM-20L2 = system: KM-20L2
KM12 = system: KM12
LOX IMVI = system: LOX IMVI
LXFL 529 = system: LXFL 529
M14 = system: M14
M19-MEL = system: M19-MEL
MOLT-4 = system: MOLT-4
Malme-3M = system: Malme-3M
NCI-H23 = system: NCI-H23
NCI-H460 = system: NCI-H460
NCI-H522 = system: NCI-H522
OVCAR-3 = system: OVCAR-3
OVCAR-4 = system: OVCAR-4
OVCAR-5 = system: OVCAR-5
OVCAR-8 = system: OVCAR-8
RPMI-8226 = system: RPMI-8226
RXF 393 = system: RXF 393
RXF 631 = system: RXF 631
SF-268 = system: SF-268
SF-295 = system: SF-295
SF-539 = system: SF-539
SK-MEL-28 = system: SK-MEL-28
SK-MEL-2 = system: SK-MEL-2
SK-MEL-5 = system: SK-MEL-5
SK-OV-3 = system: SK-OV-3
SN12C = system: SN12C
SNB-19 = system: SNB-19
SNB-75 = system: SNB-75
SNB-78 = system: SNB-78
SW-620 = system: SW-620
TK-10 = system: TK-10
U-251 = system: U-251
UACC-257 = system: UACC-257
UACC-62 = system: UACC-62
UO-31 = system: UO-31
HT-29 = system: HT-29
NCI-H226 = system: NCI-H226
SR = system: SR
XF498 = system: XF498

Q: What does the source list for `O=C(Nc1ccc(Cl)cc1)/C(Cc1cccc[n+]1[O-])=N\Nc1ccc([N+](=O)[O-])cc1[N+](=O)[O-]`?
A: GI50 (786-0): > 100 µM (inactive); GI50 (A498): > 100 µM (inactive); GI50 (A549): > 100 µM (inactive); GI50 (ACHN): > 100 µM (inactive); GI50 (CAKI-1): > 100 µM (inactive); GI50 (CCRF-CEM): > 100 µM (inactive); GI50 (COLO 205): > 100 µM (inactive); GI50 (DLD-1): > 100 µM (inactive); GI50 (DMS-114): > 100 µM (inactive); GI50 (DMS-273): > 100 µM (inactive); GI50 (EKVX): > 100 µM (inactive); GI50 (HCC 2998): > 100 µM (inactive); GI50 (HCT-116): > 100 µM (inactive); GI50 (HCT-15): > 100 µM; GI50 (HL-60): > 100 µM (inactive); GI50 (HOP-62): > 100 µM (inactive); GI50 (HOP-92): > 100 µM (inactive); GI50 (IGROV-1): > 100 µM (inactive); GI50 (K562): > 100 µM (inactive); GI50 (KM-20L2): > 100 µM (inactive); GI50 (KM12): > 100 µM (inactive); GI50 (LOX IMVI): > 100 µM (inactive); GI50 (LXFL 529): > 100 µM (inactive); GI50 (M14): > 100 µM (inactive); GI50 (M19-MEL): > 100 µM (inactive); GI50 (MOLT-4): > 100 µM (inactive); GI50 (Malme-3M): > 100 µM (inactive); GI50 (NCI-H23): > 100 µM (inactive); GI50 (NCI-H460): > 100 µM (inactive); GI50 (NCI-H522): > 100 µM (inactive); GI50 (OVCAR-3): > 100 µM (inactive); GI50 (OVCAR-4): > 100 µM (inactive); GI50 (OVCAR-5): > 100 µM (inactive); GI50 (OVCAR-8): > 100 µM (inactive); GI50 (RPMI-8226): > 100 µM (inactive); GI50 (RXF 393): > 100 µM (inactive); GI50 (RXF 631): > 100 µM (inactive); GI50 (SF-268): > 100 µM (inactive); GI50 (SF-295): > 100 µM (inactive); GI50 (SF-539): > 100 µM (inactive); GI50 (SK-MEL-28): > 100 µM (inactive); GI50 (SK-MEL-2): > 100 µM (inactive); GI50 (SK-MEL-5): > 100 µM (inactive); GI50 (SK-OV-3): > 100 µM (inactive); GI50 (SN12C): > 100 µM (inactive); GI50 (SNB-19): > 100 µM (inactive); GI50 (SNB-75): > 100 µM (inactive); GI50 (SNB-78): > 100 µM (inactive); GI50 (SW-620): > 100 µM (inactive); GI50 (TK-10): > 100 µM (inactive); GI50 (U-251): > 100 µM (inactive); GI50 (UACC-257): > 100 µM (inactive); GI50 (UACC-62): > 100 µM (inactive); GI50 (UO-31): > 100 µM (inactive)

Q: Which GI50 (786-0) does the source give for `CC(=O)Nc1ccc(/C=C/C(=O)c2sc(-c3nc(C)c(C(=O)/C=C/c4ccc(NC(C)=O)cc4)s3)nc2C)cc1` here?
A: The GI50 was > 100 µM (inactive).

Q: And the GI50 (A549)?
A: The GI50 was > 100 µM (inactive).

Q: What about the GI50 (ACHN) of the same compound?
A: The GI50 was > 100 µM (inactive).

Q: And the GI50 (CAKI-1)?
A: The GI50 was > 100 µM (inactive).

Q: What about the GI50 (CCRF-CEM) of the same compound?
A: Its GI50 is > 100 µM (inactive).

Q: And the GI50 (COLO 205)?
A: Its GI50 is > 100 µM (inactive).

Q: What about the GI50 (DLD-1) of the same compound?
A: The GI50 was > 100 µM (inactive).

Q: And the GI50 (DMS-114)?
A: Its GI50 is > 100 µM (inactive).

Q: What about the GI50 (DMS-273) of the same compound?
A: The GI50 was > 100 µM (inactive).

Q: And the GI50 (EKVX)?
A: Its GI50 is > 100 µM (inactive).

Q: What about the GI50 (HCC 2998) of the same compound?
A: The GI50 was > 100 µM (inactive).

Q: What about the GI50 (HCT-116) of the same compound?
A: The GI50 was > 100 µM (inactive).

Q: And the GI50 (HCT-15)?
A: Its GI50 is over 100 µM.

Q: And the GI50 (HL-60)?
A: Its GI50 is > 100 µM (inactive).

Q: And the GI50 (HOP-62)?
A: The GI50 was > 100 µM (inactive).

Q: And the GI50 (HT-29)?
A: Its GI50 is > 100 µM (inactive).

Q: And the GI50 (IGROV-1)?
A: Its GI50 is > 100 µM (inactive).

Q: What about the GI50 (K562) of the same compound?
A: Its GI50 is > 100 µM (inactive).

Q: And the GI50 (KM-20L2)?
A: The GI50 was > 100 µM (inactive).

Q: And the GI50 (KM12)?
A: Its GI50 is > 100 µM (inactive).

Q: And the GI50 (LOX IMVI)?
A: Its GI50 is > 100 µM (inactive).

Q: What about the GI50 (LXFL 529) of the same compound?
A: The GI50 was > 100 µM (inactive).

Q: And the GI50 (M14)?
A: The GI50 was > 100 µM (inactive).

Q: And the GI50 (M19-MEL)?
A: The GI50 was > 100 µM (inactive).

Q: What about the GI50 (MOLT-4) of the same compound?
A: The GI50 was > 100 µM (inactive).

Q: What about the GI50 (Malme-3M) of the same compound?
A: Its GI50 is > 100 µM (inactive).

Q: And the GI50 (NCI-H226)?
A: Its GI50 is > 100 µM (inactive).

Q: What about the GI50 (NCI-H23) of the same compound?
A: Its GI50 is > 100 µM (inactive).

Q: What about the GI50 (NCI-H460) of the same compound?
A: The GI50 was > 100 µM (inactive).

Q: And the GI50 (NCI-H522)?
A: The GI50 was > 100 µM (inactive).

Q: And the GI50 (OVCAR-3)?
A: The GI50 was > 100 µM (inactive).

Q: And the GI50 (OVCAR-4)?
A: Its GI50 is > 100 µM (inactive).

Q: What about the GI50 (OVCAR-5) of the same compound?
A: The GI50 was > 100 µM (inactive).

Q: What about the GI50 (OVCAR-8) of the same compound?
A: The GI50 was > 100 µM (inactive).

Q: And the GI50 (RXF 393)?
A: Its GI50 is > 100 µM (inactive).

Q: What about the GI50 (RXF 631) of the same compound?
A: The GI50 was > 100 µM (inactive).

Q: What about the GI50 (SF-268) of the same compound?
A: The GI50 was > 10 µM (inactive).

Q: What about the GI50 (SF-295) of the same compound?
A: Its GI50 is > 100 µM (inactive).

Q: What about the GI50 (SF-539) of the same compound?
A: The GI50 was > 100 µM (inactive).

Q: What about the GI50 (SK-MEL-28) of the same compound?
A: The GI50 was > 100 µM (inactive).

Q: And the GI50 (SK-MEL-2)?
A: Its GI50 is > 100 µM (inactive).

Q: What about the GI50 (SK-OV-3) of the same compound?
A: The GI50 was > 100 µM (inactive).

Q: What about the GI50 (SN12C) of the same compound?
A: Its GI50 is > 100 µM (inactive).

Q: What about the GI50 (SNB-19) of the same compound?
A: The GI50 was > 100 µM (inactive).

Q: What about the GI50 (SNB-78) of the same compound?
A: The GI50 was > 100 µM (inactive).

Q: What about the GI50 (SR) of the same compound?
A: Its GI50 is > 100 µM (inactive).

Q: What about the GI50 (SW-620) of the same compound?
A: Its GI50 is > 100 µM (inactive).

Q: And the GI50 (TK-10)?
A: Its GI50 is > 100 µM (inactive).

Q: What about the GI50 (U-251) of the same compound?
A: Its GI50 is > 100 µM (inactive).

Q: And the GI50 (UACC-257)?
A: Its GI50 is > 100 µM (inactive).

Q: What about the GI50 (UACC-62) of the same compound?
A: Its GI50 is > 100 µM (inactive).

Q: And the GI50 (UO-31)?
A: The GI50 was 97.5 µM (inactive).

Q: And the GI50 (XF498)?
A: The GI50 was > 100 µM (inactive).
